Laboratory results taken from ChEMBL document CHEMBL4732134, “Identification of N-phenyl-3-methoxy-4-pyridinones as orally bioavailable H receptor antagonists and β-amyloid aggregation inhibitors for the treatment of Alzheimer's disease” (Eur J Med Chem, 2021).

Assays:
hERG (KCNH2) = hERG (KCNH2) (Homo sapiens, UniProt Q12809); assay: Inhibition of human ERG at 3 uM by patch clamp method relative to control
Histamine H4 receptor = Histamine H4 receptor (Homo sapiens, UniProt Q9H3N8); assay: Antagonist activity at human histamine H4 receptor expressed in HEK293 cells preincubated for 5 mins followed by forskolin-stimulation and measured after 5 hrs by CRE-driven luciferase reporter gene assay; type: functional, cell-based
Histamine H2 receptor = Histamine H2 receptor (Homo sapiens, UniProt P25021); assay: Antagonist activity at human histamine H2 receptor expressed in HEK293 cells preincubated for 5 mins followed by forskolin-stimulation and measured after 5 hrs by CRE-driven luciferase reporter gene assay; type: functional, cell-based
Histamine H1 receptor = Histamine H1 receptor (Homo sapiens, UniProt P35367); assay: Antagonist activity at human histamine H1 receptor expressed in HEK293 cells preincubated for 5 mins followed by forskolin-stimulation and measured after 5 hrs by CRE-driven luciferase reporter gene assay; type: functional, cell-based
Sequence of Histamine H1 receptor (P35367 whole entry): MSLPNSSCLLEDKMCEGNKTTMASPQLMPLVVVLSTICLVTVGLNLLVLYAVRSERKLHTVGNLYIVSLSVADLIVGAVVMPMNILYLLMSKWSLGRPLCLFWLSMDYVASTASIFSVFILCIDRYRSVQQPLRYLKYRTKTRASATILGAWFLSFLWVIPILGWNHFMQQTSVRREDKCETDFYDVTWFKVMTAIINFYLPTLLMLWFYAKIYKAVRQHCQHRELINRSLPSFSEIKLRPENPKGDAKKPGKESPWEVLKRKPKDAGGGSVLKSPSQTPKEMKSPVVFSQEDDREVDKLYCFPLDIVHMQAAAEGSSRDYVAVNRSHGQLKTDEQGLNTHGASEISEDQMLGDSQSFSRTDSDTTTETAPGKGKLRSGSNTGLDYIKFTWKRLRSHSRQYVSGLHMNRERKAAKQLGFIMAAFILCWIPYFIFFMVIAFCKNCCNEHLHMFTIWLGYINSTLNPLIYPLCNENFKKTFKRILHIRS

Sequence of hERG (KCNH2) (Q12809 whole entry): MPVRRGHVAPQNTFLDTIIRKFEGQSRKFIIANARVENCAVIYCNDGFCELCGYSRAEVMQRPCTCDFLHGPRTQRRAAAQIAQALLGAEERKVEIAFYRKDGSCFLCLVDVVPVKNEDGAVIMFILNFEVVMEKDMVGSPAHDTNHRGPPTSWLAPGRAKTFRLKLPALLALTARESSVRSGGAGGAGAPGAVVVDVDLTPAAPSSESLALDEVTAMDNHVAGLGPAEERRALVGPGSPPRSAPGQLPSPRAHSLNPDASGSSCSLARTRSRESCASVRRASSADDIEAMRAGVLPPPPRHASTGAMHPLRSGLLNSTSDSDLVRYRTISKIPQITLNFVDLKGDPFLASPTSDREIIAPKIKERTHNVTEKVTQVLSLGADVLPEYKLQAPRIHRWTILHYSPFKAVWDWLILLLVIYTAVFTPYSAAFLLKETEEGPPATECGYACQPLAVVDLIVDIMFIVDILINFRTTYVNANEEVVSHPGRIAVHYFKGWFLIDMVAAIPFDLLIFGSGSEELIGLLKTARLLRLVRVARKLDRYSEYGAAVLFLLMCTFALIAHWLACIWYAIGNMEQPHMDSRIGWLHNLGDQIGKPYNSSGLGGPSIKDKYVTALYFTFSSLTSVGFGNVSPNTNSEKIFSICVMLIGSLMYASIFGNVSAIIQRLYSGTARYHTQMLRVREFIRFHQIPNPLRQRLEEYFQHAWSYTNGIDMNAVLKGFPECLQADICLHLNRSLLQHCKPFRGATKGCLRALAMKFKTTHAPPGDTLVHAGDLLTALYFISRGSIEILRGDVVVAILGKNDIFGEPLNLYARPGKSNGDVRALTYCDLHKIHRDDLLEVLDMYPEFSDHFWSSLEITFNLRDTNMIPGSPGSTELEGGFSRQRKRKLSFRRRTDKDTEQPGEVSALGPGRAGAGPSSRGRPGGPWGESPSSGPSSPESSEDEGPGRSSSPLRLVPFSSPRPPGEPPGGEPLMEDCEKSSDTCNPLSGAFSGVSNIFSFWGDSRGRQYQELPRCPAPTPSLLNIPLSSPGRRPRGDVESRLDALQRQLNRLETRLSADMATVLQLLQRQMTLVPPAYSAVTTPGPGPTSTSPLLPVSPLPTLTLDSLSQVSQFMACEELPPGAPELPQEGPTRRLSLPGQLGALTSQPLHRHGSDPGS
Sequence of Histamine H2 receptor (P25021 whole entry): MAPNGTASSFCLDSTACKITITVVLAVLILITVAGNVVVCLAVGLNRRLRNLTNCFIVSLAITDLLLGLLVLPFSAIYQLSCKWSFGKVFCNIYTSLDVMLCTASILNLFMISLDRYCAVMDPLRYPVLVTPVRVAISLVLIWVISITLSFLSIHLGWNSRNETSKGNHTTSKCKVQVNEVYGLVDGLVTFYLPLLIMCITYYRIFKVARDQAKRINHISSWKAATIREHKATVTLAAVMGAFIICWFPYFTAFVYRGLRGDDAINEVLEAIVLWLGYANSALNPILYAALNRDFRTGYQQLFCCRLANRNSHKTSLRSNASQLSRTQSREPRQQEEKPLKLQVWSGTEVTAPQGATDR

- IC50 (Histamine H4 receptor): > 10 µM
- IC50 (Histamine H2 receptor): > 10 µM
- IC50 (Histamine H1 receptor): > 10 µM
Structure (SMILES): COc1cn(-c2ccc(OCCCN3CCCC3)cc2)ccc1=O
- inhibition at 3 µM (hERG (KCNH2)): 6.3%
